Data as given in ChEMBL document CHEMBL1150715, “Puupehenone, a cytotoxic metabolite from a deep water marine sponge, Stronglyophora hartmani” (J Nat Prod, 1987).
Values after ≈ are worked out from the molar mass of the structure shown.

Experiments:
A549 = assay: Cytotoxicity against human A549 cells; type: functional, cell-based
P388 [1] = assay: Cytotoxicity against mouse P388 cells; type: functional, cell-based
MCF7 = assay: Cytotoxicity against human MCF7 cells; type: functional, cell-based
HCT-8 = assay: Cytotoxicity against human HCT8 cells; type: functional, cell-based
Candida albicans = assay: Antifungal activity against Candida albicans; type: functional
P388 [2] = assay: In vivo cytotoxicity against mouse P388 cells at 25 mg/kg administered daily for 9 days relative to control; type: functional

MIC (Candida albicans): 3 µg/mL (≈ 9.13 µM)
SMILES: CC1(C)CCC[C@]2(C)[C@H]3C=C4C=C(O)C(=O)C=C4O[C@@]3(C)CC[C@@H]12 [PUUPEHENONE]
IC50 (A549): 0.1 µg/mL (≈ 0.304 µM)
IC50 (P388 [1]): 1 µg/mL (≈ 3.04 µM)
IC50 (MCF7): 0.1 µg/mL (≈ 0.304 µM)
IC50 (HCT-8): 1 µg/mL (≈ 3.04 µM)
T/C (P388 [2]): 119%
